Reference: patent US8178658B2 (Dow AgroSciences, LLC, priority 2008, dated 2012)

What was measured:
[1] = test system: beet armyworm (BAW; Spodoptera exigua: Lepidoptera); experiment: 128-well diet tray assay on beet armyworm (BAW 50); format: in vivo; conditions: for BAW 50 ug/cm2: 128-well diet tray assay, 50 μg/cm^2 of test compound on diet, second instar BAW larvae, mortality class; for pest or weed control at 50 µg/cm2, 50 µg/cm2: Spodoptera exigua, 144 h, read-out: BAW 50 ug/cm2
Procedure: (§1) Bioassays on beet armyworm (BAW; Spodoptera exigua: Lepidoptera) were conducted using either a 96-well microtiter plate-based high throughput (HTS) bioassay or a 128-well diet tray assay. The HTS assay is a based on a modification of Lewer et al. J. Nat. Prod. 2006, 69, 1506. BAW eggs of were placed on top of artificial diet (100 μl) in each well of 96-well microtiter plate. The diet was pretreated with test compounds (12 μg dissolved in 30 μL of DMSO-acetone-water mixture) layered on top of the diet using a liquid handling system and then allowed to dry for several hours. Infested plates were then covered with a layer of sterile cotton batting and the plate lid, and then held in the dark at 29° C. Mortality was recoded at 6 d post-treatment. Each plate had six replicates. The percent mortality was calculated from the average of the six replicates. In the case of the 128-well diet assay, three to five second instar BAW larvae were placed in each well (3 mL) of the diet tray that had been previously filled with 1 mL of artificial diet to which 50 μg/cm^2 of the test compound (dissolved in 50 μL of 90:10 acetone-water mixture) had been applied (to each of eight wells) and then allowed to dry. Trays were covered with a clear self-adhesive cover, and held at 25° C., 14:10 light-dark for six days. Percent mortality was recorded for the larvae in each well; activity in the eight wells was then averaged. In Table 7, under the BAW HTS or BAW 50 heading, an “A” means that the compound was tested and at least 50 percent mortality was observed whereas, “B” means that either (1) the compound was tested and less than 50 percent mortality was observed or (2) the compound was not tested.

[2] = test system: beet armyworm (BAW; Spodoptera exigua: Lepidoptera); experiment: 96-well microtiter plate-based high throughput (HTS) diet bioassay on beet armyworm (BAW HTS); format: in vivo; conditions: for BAW HTS: BAW eggs, 12 μg test compound per well, mortality at 6 d post-treatment, mortality class; for pest or weed control at 12 µg/well, 12 µg/well: Spodoptera exigua, 144 h, read-out: BAW HTS
Procedure: as §1

[3] = 96-well microtiter plate HTS diet assay

Structure (SMILES)	BAW 50 ug/cm2 [1]	BAW HTS ([2]; 96-well HTS diet bioassay)	BAW HTS [2, 3]	BAW HTS ([2]; 96-well HTS diet assay)	pest or weed control at 50 µg/cm2, 50 µg/cm2 [1]	pest or weed control at 12 µg/well, 12 µg/well [2]
COC1C(C)OC(ON=Cc2ccc(-c3ncn(-c4ccc(SC)cc4)n3)cc2)C(OC)C1OC (centres unmarked) [Compound 90]	A (the compound was tested and at least 50 percent mortality was observed)	B (either (1) the compound was tested and less than 50 percent mortality was observed or (2) the compound was not tested)	B (either (1) the compound was tested and less than 50 percent mortality was observed or (2) the compound was not tested)	–	–	–
COC1C(C)OC(ON=Cc2ccc(-c3nn(-c4ccc(OC(F)(F)F)cc4)c(=O)[nH]3)cc2)C(OC)C1OC (centres unmarked) [Compound 101]	A (the compound was tested and at least 50 percent mortality was observed)	B (either (1) the compound was tested and less than 50 percent mortality was observed or (2) the compound was not tested)	B (either (1) the compound was tested and less than 50 percent mortality was observed or (2) the compound was not tested)	–	–	–
COC1C(C)OC(ON=Cc2ccc(-c3ccn(-c4ccc(OC(F)(F)F)cc4)c3)cc2)C(OC)C1OC (centres unmarked) [Compound 67]	A (the compound was tested and at least 50 percent mortality was observed)	B (either (1) the compound was tested and less than 50 percent mortality was observed or (2) the compound was not tested)	B (either (1) the compound was tested and less than 50 percent mortality was observed or (2) the compound was not tested)	–	–	–
CCO[C@@H]1[C@@H](OC)[C@H](C)O[C@@H](OC(=O)Nc2ccc(-c3nc(C(F)(F)F)n(-c4ccc(OC(F)(F)F)cc4)n3)cc2)[C@@H]1OC [Compound 222]	A (the compound was tested and at least 50 percent mortality was observed)	–	B (either (1) the compound was tested and less than 50 percent mortality was observed or (2) the compound was not tested)	B (either (1) the compound was tested and less than 50 percent mortality was observed or (2) the compound was not tested)	–	–
CO[C@@H]1[C@@H](OC)[C@H](C)O[C@@H](OC(=O)Nc2ccc(-c3ncn(-c4ccc(OC(F)(F)F)cc4)n3)cc2)[C@@H]1OC [Compound 191, {4-[1-(4-trifluoromethoxyphenyl)-1H-[1,2,4]triazol-3-yl]-phenyl}-carbamic acid (2S,3R,4R,5S,6S)-3,4,5-trimethoxy-6-methyl-tetrahydropyran-2-yl ester]	A (the compound was tested and at least 50 percent mortality was observed)	–	A (the compound was tested and at least 50 percent mortality was observed)	–	> 50%	> 50%
CCOC1C(OC)C(C)OC(ON=Cc2ccc(-c3ncn(-c4ccc(C(F)(F)F)nc4)n3)cc2)C1OC (centres unmarked) [Compound 121]	A (the compound was tested and at least 50 percent mortality was observed)	B (either (1) the compound was tested and less than 50 percent mortality was observed or (2) the compound was not tested)	B (either (1) the compound was tested and less than 50 percent mortality was observed or (2) the compound was not tested)	–	–	–
CCO[C@@H]1[C@@H](OC)[C@H](C)O[C@@H](OC(=O)Nc2ccc(-c3ncn(-c4ccc(OC(F)(F)C(F)(F)F)cc4)n3)cc2)[C@@H]1OC [Compound 201, {4-[1-(4-pentafluoroethyloxyphenyl)-1H-[1,2,4]triazol-3-yl]-phenyl}-carbamic acid (2S,3R,4R,5S,6S)-4-ethoxy-3,5-dimethoxy-6-methyl-tetrahydropyran-2-yl ester]	A (the compound was tested and at least 50 percent mortality was observed)	–	A (the compound was tested and at least 50 percent mortality was observed)	–	> 50%	> 50%
